Measured values reported in ChEMBL document CHEMBL1201862, “PubChem BioAssay data set” (2004).
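Five compound concentrations were applied to cells in 96-well plates for 48 hours; endpoints were derived by simple linear interpolation of the resulting dose-response curve. The concentration for 50% growth inhibition is given as GI50.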 Active and inactive are the calls of the source. Cut-off read from the data, not from the text of the source: active = GI50 up to about 1.1 µM and inactive = higher.

Legend:
Experiment in all cases: growth of human tumour cells (NCI), 48 h
ACHN = system: ACHN
M14 = system: M14
RPMI-8226 = system: RPMI-8226
SNB-75 = system: SNB-75
SNB-78 = system: SNB-78
OVCAR-4 = system: OVCAR-4
786-0 = system: 786-0
LXFL 529 = system: LXFL 529
UACC-62 = system: UACC-62
HT-29 = system: HT-29
HOP-18 = system: HOP-18
SF-268 = system: SF-268
DMS-273 = system: DMS-273
SF-295 = system: SF-295
EKVX = system: EKVX
NCI-H522 = system: NCI-H522
SR = system: SR
HOP-92 = system: HOP-92
OVCAR-5 = system: OVCAR-5
BT-549 = system: BT-549

SMILES	GI50 (ACHN)	GI50 (M14)	GI50 (RPMI-8226)	GI50 (SNB-75)	GI50 (SNB-78)	GI50 (OVCAR-4)	GI50 (786-0)	GI50 (LXFL 529)	GI50 (UACC-62)	GI50 (HT-29)	GI50 (HOP-18)	GI50 (SF-268)	GI50 (DMS-273)	GI50 (SF-295)	GI50 (EKVX)	GI50 (NCI-H522)	GI50 (SR)	GI50 (HOP-92)	GI50 (OVCAR-5)	GI50 (BT-549)
CCOC(=O)NC(=O)c1cn(CCOC(=O)NCCCCCCNC(=O)OCCn2cc(C(=O)NC(=O)OCC)c(=O)[nH]c2=O)c(=O)[nH]c1=O	> 100 µM (inactive)	> 100 µM (inactive)	> 100 µM (inactive)	> 100 µM (inactive)	> 100 µM (inactive)	> 100 µM (inactive)	> 100 µM (inactive)	> 100 µM (inactive)	> 100 µM (inactive)	> 100 µM (inactive)	> 100 µM (inactive)	> 100 µM (inactive)	> 100 µM (inactive)	> 100 µM (inactive)	> 100 µM (inactive)	> 100 µM (inactive)				
COc1cccc2c1C(=O)c1c(O)c3c(c(O)c1C2=O)C[C@@](O)(C(=O)CO)CC3OC1CC(NCCOCC(OC(C)=O)OC(C)=O)C(O)C(C)O1 (some centres undefined)	< 0.01 µM (active)	< 0.01 µM (active)	< 0.01 µM (active)	< 0.01 µM (active)		< 0.01 µM (active)	< 0.01 µM (active)	< 0.01 µM (active)	0.00498 µM (active)	< 0.01 µM (active)	< 0.01 µM (active)	< 0.01 µM (active)		0.00973 µM (active)	< 0.01 µM (active)		< 0.01 µM (active)	< 0.01 µM (active)	< 0.01 µM (active)	
CCCC/C=C1\CCC(CN2CCCCC2)C1=O (centres undefined)	29.3 µM (inactive)	10.1 µM (inactive)		> 100 µM (inactive)	4.2 µM (inactive)	30.5 µM (inactive)	6.31 µM (inactive)	1.7 µM (inactive)	11.4 µM (inactive)	10.9 µM (inactive)	8.73 µM (inactive)	32.1 µM (inactive)		30.5 µM (inactive)	26.1 µM (inactive)			10.9 µM (inactive)	34.7 µM (inactive)	> 100 µM (inactive)
Cc1cc(=O)n(-c2cc3cccccc-3n2)[nH]1	5.87 µM (inactive)	4.42 µM (inactive)	8 µM (inactive)	3.76 µM (inactive)			4.58 µM (inactive)	3.79 µM (inactive)	2.84 µM (inactive)	13.5 µM (inactive)	3.95 µM (inactive)			16.7 µM (inactive)	12.5 µM (inactive)	2.68 µM (inactive)			15.5 µM (inactive)	
O=C(CCc1cc(-c2ccco2)n(-c2ccc([N+](=O)[O-])cc2[N+](=O)[O-])n1)Nc1ccccc1	> 100 µM (inactive)	> 100 µM (inactive)	> 100 µM (inactive)	> 100 µM (inactive)	> 100 µM (inactive)	> 100 µM (inactive)	> 100 µM (inactive)	> 100 µM (inactive)	> 100 µM (inactive)	> 100 µM (inactive)		> 100 µM (inactive)	> 100 µM (inactive)	> 100 µM (inactive)	> 100 µM (inactive)	> 100 µM (inactive)	> 100 µM (inactive)	> 100 µM (inactive)	> 100 µM (inactive)	
NC1CCC[C@H]1O (some centres undefined)	> 100 µM (inactive)	> 100 µM (inactive)	> 100 µM (inactive)	> 100 µM (inactive)	> 100 µM (inactive)	> 100 µM (inactive)	> 100 µM (inactive)		> 100 µM (inactive)	> 100 µM (inactive)	> 100 µM (inactive)	> 100 µM (inactive)	> 100 µM (inactive)	> 100 µM (inactive)	> 100 µM (inactive)	> 100 µM (inactive)		> 100 µM (inactive)		
C=C1C(=O)OC2C[C@H](C)C3CC(=O)C(C)=C3CC12 (some centres undefined)	12.1 µM (inactive)	12.4 µM (inactive)	4.45 µM (inactive)	14.6 µM (inactive)	16 µM (inactive)	14.2 µM (inactive)	13 µM (inactive)	10.6 µM (inactive)	11.8 µM (inactive)	12.5 µM (inactive)		18.2 µM (inactive)	17.1 µM (inactive)	25.2 µM (inactive)	16.3 µM (inactive)	1.75 µM (inactive)	5.56 µM (inactive)	10.5 µM (inactive)	15.1 µM (inactive)	
CN1CCc2c1nc(-c1ccc(Cl)cc1)c1c2N(C)CC1	6.78 µM (inactive)	7.71 µM (inactive)	9.06 µM (inactive)	29.6 µM (inactive)	28.7 µM (inactive)	28.4 µM (inactive)	> 100 µM (inactive)	20.1 µM (inactive)	5.94 µM (inactive)	4.56 µM (inactive)	< 0.01 µM (active)	21.5 µM (inactive)	14 µM (inactive)	14.1 µM (inactive)	35.1 µM (inactive)				24.1 µM (inactive)	
